Square brackets hold non-standard residues; d marks the D form. Ends that are not written are not given here.

The test system of assay [1] is soybean leaves. In words: Translocation of sprayed TAMRA-CPPs into soybean leaves (fluorescence imaging). Conditions: for cell penetrating efficiency: soybean leaves, in general. The assay is classed as in vivo, Glycine max. How it is done: Seeds of soybean (Glycine max) cultivars Enrei, William-82, and Peking, were germinated between germination papers that has been moistened with tap water. Then the seeds with papers were placed in a plastic bag and incubated in a growth chamber under 18 hours light/6 hours dark at 26° C. for three days. One and a quarter tea spoon of Multicoat 4 was mixed with 2 L of autoclaved sand, which was then moistened with tap water. Three days old soybean seedlings were then transplanted into containers filled with moist sand mix and incubated in the same growth chamber. Leaves from 5 weeks old plants were used for experiments.
Soybean leaves are different in both architecture and leaf chemical components. We further examined the translocation efficiency of highly efficient native CPP sequences in soybean leaves. Leaves from 5 weeks old plants were used for the experiment. Solutions containing 1.0 mg/mL of natural TAMRA-CPP; TAMRA-BP100, TAMRA-KH9, TAMRA-R9, and TAMRA-D-R9 were sprayed on soybean leaves of 3 different cultivars (Enrei, Peking, and William-82) and incubated for 30 min, 90 min, and 150 min (FIG. 3A). The fluorescence imaging and image analysis were conducted to determine the translocation efficiency of these CPPs to plant leaves. […] Different soybean cultivars responded differently to the translocation of CPPs to plant cells.
We tried to determine the efficiency of artificial CPPs containing Aib to soybean leaves using spraying. KAibA, KAibK, and KAibG were synthesized and labelled with TAMRA as described in Example 1. The solutions containing 1 mg/mL of these artificial TAMRA-CPPs were sprayed to fully expanded leaves of 5-weeks old soybean cultivar Enrei and the fluorescence imaging was carried out at 30 min, 90 min, and 150 min after spraying. […] However, the average fluorescent intensity in TAMRA-KAibA-treated soybean leaves was lower than that previously achieved by TAMRA-D-R9 (FIG. 3B and C).

Assay [2] concerns Arabidopsis leaf. Nature of the assay: Translocation of sprayed TAMRA-CPPs into Arabidopsis leaf cells (CLSM fluorescence). The assay is classed as in vivo, Arabidopsis thaliana. Conditions: for cell penetrating efficiency: epidermal cells, TAMRA-labelled CPP 1 mg/L in water, compared with KH9 and R9. The source says:
Cell-penetrating peptides (CPPs), also called protein transduction domains, are short peptides that facilitate the transport of cargo molecules through membranes to gain access to the cells. In many cases, CPPs are coupled to cargo molecules through covalent conjugation, forming CPP-cargo complexes. To date, DNA, RNA, nanomaterials and proteins such as antibodies were reported as cargo molecules. Most studies of the complex of CPPs and protein have contributed to the applications in mammalian cells, whereas only very limited studies have focused on plant cells. […] The plant cells are mainly containing cellulose, hemicellulose and pectin. […] BP100 (KKLFKKILKYL—SEQ ID NO: 7) is an amphiphilic peptide and has CPP function. KH9 (KHKHKHKHKHKHKHKHKH—SEQ ID NO: 10), R9 (RRRRRRRRR SEQ ID NO: 8), and D-R9 (rrrrrrrrr, D-form of R9 - SEQ ID NO: 9) are peptides containing both CPP and cationic biomolecule binding functions. BP100(KH)9 ([…]—SEQ ID NO: 11) and BP100CH7 ([…]—SEQ ID NO: 12) are fusion peptides containing CPP and cationic sequences which are designed as stimulus-response peptides and could release the cargo molecules (peptides, protein, RNA, DNA) into the cytoplasm. KAibA(KH)9, K-alpha-aminoisobutyric acid (AibA)-AKHKHKHKHKHKHKHKHKH, and KAibA(D-R9), K-alpha-aminoisobutyric acid (AibA)-Arrrrrrrrr are synthetic peptides and containing both CPP and cationic biomolecule binding functions. KAibA (U.S. Ser. No. 16/832,749) was chemoenzymatically synthesized using the polymerization reaction (ACS Biomater. Sci. Eng. 2020, 6, 6, 3287-3298). TAMRA-CPPs are CPPs that labeled by fluorescent molecule 5-carboxytetramethylrhodamine (TAMRA) at the C-terminal end and were used for optimization of various conditions. For the labelling of CPP with TAMRA, the amino acids in Boc-CPPs were deprotected using tri-fluoroacetic acid (TFA). A solution of tetramethylrhodamine-5-isothiocyanate in dimethyl sulfoxide (DMSO) was added to CPP solutions and kept stirring at 25° C. for 14 h. The solution was centrifuged at maximum speed at 4° C. for 60 minutes and the precipitate was washed with Milli-Q water. After lyophilizing, a pink solid was obtained. Dried precipitate of TAM RA-CPP was re-suspended with Milli-q and the TAMRA-CPP solution was kept at 1.0 mg/mL concentration in −80° C. Plasmid DNA that contains expression cassette of reporter gene such as GUS (SEQ ID NO: 1), GFP (SEQ ID NO: 2), DsRed (SEQ ID NO: 3), and Renilla luciferase (Rluc—SEQ ID NO: 4) was used to detect successful delivery into plant cells. […]
Each TAMRA-CPP was adjusted as concentration at 1 mg/L in water. […] Leaf surface was washed three times with water after 30, 90 and 150 min post spraying, and the intensity of fluorescence was measured by CLSM imaging analysis (FIG. 2A). […]

Consider KKLFKKILKYL (BP100), for which the cell penetrating efficiency entry in assay [1] and in assay [2] was “higher cell penetrating efficiency” each time.

As for “rrrrrrrrr ([dR][dR][dR][dR][dR][dR][dR][dR][dR]) [D-R9]”, in assay [1] (cultivar Peking), the cell penetrating effect entry is “most efficient cell penetrating effect”. Further, the cell penetrating efficiency result in assay [1] and in assay [2] was “higher cell penetrating efficiency” in each case. In addition, the “depth of penetration and persistence in tissue” value in assay [2] (Arabidopsis leaf, summary) was “able to penetrate deep inside of the tissue and stay longer without degradation”. Besides, the penetrating efficiency entry in assay [2] (mesophyll cells) was “highest penetrating efficiency”.
